Read-outs that look alike come from different tables or passages of the source.
Experiments:
Mn(II)-loaded EcMetAP-I [1] = target: T1, Mn(II)-loaded EcMetAP-I (Escherichia coli, UniProt P0AE18); assay: Isothermal titration calorimetry; type: binding; conditions: for fold stronger binding (Kd) to Co(II)-loaded than Mn(II)-loaded EcMetAP-I: ITC Kd Mn(II)-loaded vs Co(II)-loaded EcMetAP-I; for n (stoichiometry): ITC fit
Co(II)-loaded PfMetAP-II [2] = target: T2, Co(II)-loaded PfMetAP-II (Pyrococcus furiosus, UniProt P56218); assay: Isothermal titration calorimetry; type: binding; conditions: for n (stoichiometry): ITC fit; for TΔS / ΔG: from ITC via Gibbs relationship
Co(II)-loaded HsMetAP-II = conditions: in words; cited from earlier work
Mn(II)-loaded HsMetAP-II = conditions: in words; cited from earlier work
Co(II)-loaded PfMetAP-II [3] = target: T2, Co(II)-loaded PfMetAP-II; assay: Enzymatic assay of MetAP; type: biochemical
Co(II)-loaded EcMetAP-I [4] = target: T3, Co(II)-loaded EcMetAP-I (Escherichia coli, UniProt P0AE18); assay: Isothermal titration calorimetry; type: binding; conditions: for n (stoichiometry): ITC fit; for TΔS / ΔG: from ITC via Gibbs relationship
Co(II)-loaded EcMetAP-I [5] = target: T3, Co(II)-loaded EcMetAP-I; assay: Enzymatic assay of MetAP; type: biochemical
Mn(II)-loaded PfMetAP-II [6] = target: T4, Mn(II)-loaded PfMetAP-II (Pyrococcus furiosus, UniProt P56218); assay: Isothermal titration calorimetry; type: binding; conditions: for fold stronger binding (Kd) to Co(II)-loaded than Mn(II)-loaded PfMetAP-II: ITC Kd Mn(II)-loaded vs Co(II)-loaded PfMetAP-II; for n (stoichiometry): ITC fit
Mn(II)-loaded PfMetAP-II [7] = target: T4, Mn(II)-loaded PfMetAP-II; assay: Enzymatic assay of MetAP; type: biochemical
Mn(II)-loaded EcMetAP-I [8] = target: T1, Mn(II)-loaded EcMetAP-I; assay: Enzymatic assay of MetAP; type: biochemical
[9] = [MnMn(EcMetAP-I)], from ITC via Gibbs relationship
[10] = [MnMn(PfMetAP-II)], from ITC via Gibbs relationship

T3 sequence (P0AE18 whole entry): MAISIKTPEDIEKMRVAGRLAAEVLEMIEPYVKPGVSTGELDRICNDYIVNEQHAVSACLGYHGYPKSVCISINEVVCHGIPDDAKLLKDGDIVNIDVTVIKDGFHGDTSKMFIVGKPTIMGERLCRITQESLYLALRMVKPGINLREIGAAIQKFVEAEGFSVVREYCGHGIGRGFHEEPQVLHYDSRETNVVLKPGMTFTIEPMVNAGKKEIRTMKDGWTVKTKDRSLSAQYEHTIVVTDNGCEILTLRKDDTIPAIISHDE
T1 sequence (P0AE18 whole entry): as above
T4 sequence (P56218 whole entry): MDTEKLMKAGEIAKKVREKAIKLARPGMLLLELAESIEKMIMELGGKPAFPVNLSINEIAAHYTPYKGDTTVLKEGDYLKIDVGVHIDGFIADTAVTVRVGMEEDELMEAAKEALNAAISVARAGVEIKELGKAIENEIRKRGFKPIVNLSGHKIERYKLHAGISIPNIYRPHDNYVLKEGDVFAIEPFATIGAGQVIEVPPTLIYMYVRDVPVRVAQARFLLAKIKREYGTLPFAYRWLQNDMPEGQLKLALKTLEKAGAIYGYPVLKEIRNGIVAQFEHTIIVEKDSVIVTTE
T2 sequence (P56218 whole entry): as above

Structure (SMILES) | fold stronger binding (Kd) to Co(II)-loaded than Mn(II)-loaded EcMetAP-I (Mn(II)-loaded EcMetAP-I [1]) | n (stoichiometry) (Mn(II)-loaded EcMetAP-I [1]; [MnMn(EcMetAP-I)]) | ΔG (Mn(II)-loaded EcMetAP-I [1]; [9]) [kcal/mol] | n (stoichiometry) (Co(II)-loaded PfMetAP-II [2]; [CoCo(PfMetAP-II)]) | TΔS (Co(II)-loaded PfMetAP-II [2]; [CoCo(PfMetAP-II)]) [kcal/mol] | ΔG (Co(II)-loaded PfMetAP-II [2]; [CoCo(PfMetAP-II)]) [kcal/mol] | inhibition of Co(II)-loaded HsMetAP-II (Co(II)-loaded HsMetAP-II) | n (stoichiometry) (Co(II)-loaded EcMetAP-I [4]; [CoCo(EcMetAP-I)]) | TΔS (Co(II)-loaded EcMetAP-I [4]; [CoCo(EcMetAP-I)]) [kcal/mol] | ΔG (Co(II)-loaded EcMetAP-I [4]; [CoCo(EcMetAP-I)]) [kcal/mol] | fold stronger binding (Kd) to Co(II)-loaded than Mn(II)-loaded PfMetAP-II (Mn(II)-loaded PfMetAP-II [6]) | n (stoichiometry) (Mn(II)-loaded PfMetAP-II [6]; [MnMn(PfMetAP-II)]) | ΔG (Mn(II)-loaded PfMetAP-II [6]; [10]) [kcal/mol] | further results
CCSCC[C@@H](N)C(O)C(=O)N[C@@H](C)c1cccc2ccccc12 (mixture of isomers) [A-311263, ((2RS,3R)-3-amino-2-hydroxy-5-ethylthio)pentanoyl-((S)-(−)-(1-naphthyl)ethyl)amide] | approximately 21 fold | 1 | -5.86 | 1 | 5.02 | -8.65 | equally well | 1 | 7.89 | -7.65 | approximately 58 fold | 1 | -6.24 | Kd (Mn(II)-loaded EcMetAP-I [1]; [MnMn(EcMetAP-I)], ITC, 25.0 °C, HEPES pH 7.5): 50 ± 5 µM; TΔS (Mn(II)-loaded EcMetAP-I [1]; [9]): 1.4 kcal/mol; Kd (Co(II)-loaded PfMetAP-II [2]; [CoCo(PfMetAP-II)], ITC, 25.0 °C, HEPES pH 7.5): 0.45 ± 0.11 µM; inhibition of Mn(II)-loaded HsMetAP-II (Mn(II)-loaded HsMetAP-II): equally well; Ki (Co(II)-loaded PfMetAP-II [3]; [CoCo(PfMetAP-II)], competitive inhibition fit, substrate MGMM): 2 µM; Kd (Co(II)-loaded EcMetAP-I [4]; [CoCo(EcMetAP-I)], ITC, 25.0 °C, HEPES pH 7.5): 2.4 ± 0.1 µM; Ki (Co(II)-loaded EcMetAP-I [5]; [CoCo(EcMetAP-I)], competitive inhibition fit, substrate MGMM): 3 µM; Kd (Mn(II)-loaded PfMetAP-II [6]; [MnMn(PfMetAP-II)], ITC, 25.0 °C, HEPES pH 7.5): 26 ± 5 µM
c1ccc2cc(CSc3nnc[nH]3)ccc2c1 [A-310840, 3-((2-naphthylmethyl)sulfanyl)-4H-1,2,4-triazole] | approximately 71 fold | 1 | -4.28 | 1 | 6.45 | -7.77 | strongly inhibits | 1 | 4.78 | -6.81 | approximately 333 fold | 1 | -4.33 | IC50 (Mn(II)-loaded PfMetAP-II [7]): 1000 µM; Ki (Mn(II)-loaded PfMetAP-II [7]): 440 µM; fold less potent (IC50) for Mn(II)-loaded than Co(II)-loaded PfMetAP-II (Mn(II)-loaded PfMetAP-II [7]; IC50 Mn(II)-loaded vs Co(II)-loaded PfMetAP-II): approximately 67 fold; Kd (Mn(II)-loaded EcMetAP-I [1]): 714 ± 10 µM; Kd (Co(II)-loaded PfMetAP-II [2]): 2 ± 0.1 µM; IC50 (Mn(II)-loaded EcMetAP-I [8]): 1000 µM; Ki (Mn(II)-loaded EcMetAP-I [8]): 750 µM; fold less potent (IC50) for Mn(II)-loaded than Co(II)-loaded EcMetAP-I (Mn(II)-loaded EcMetAP-I [8]; IC50 Mn(II)-loaded vs Co(II)-loaded EcMetAP-I): approximately 23 fold; IC50 (Co(II)-loaded PfMetAP-II [3]): 15 µM; Ki (Co(II)-loaded PfMetAP-II [3]): 3 µM; Kd (Co(II)-loaded EcMetAP-I [4]): 10 ± 0.1 µM; IC50 (Co(II)-loaded EcMetAP-I [5]): 44 µM; Ki (Co(II)-loaded EcMetAP-I [5]): 8 µM; Kd (Mn(II)-loaded PfMetAP-II [6]): 666 ± 10 µM; TΔS (Mn(II)-loaded PfMetAP-II [6]; [10]): 4.06 kcal/mol

Source: article PMC2678238 (Journal of biological inorganic chemistry : JBIC : a …, 2009)
